In publication PMC13172357 (Nature Communications, 2026):

Experiments:
Ma-Mel-47 cells = test: Total proteome analysis, DIA mass spectrometry, Ma-Mel-47 cells; format: cell-based, H. sapiens; conditions: DIA Ma-Mel-47, 1 µM
Description: Following treatment, cells were harvested, washed twice with PBS, and pellets were flash frozen in liquid nitrogen before being stored at −80 °C. Samples were prepared using the single-pot, solid-phase-enhanced sample-preparation (SP3) strategy. All buffers and solutions were prepared with mass spectrometry (MS)-grade water (Honeywell). Cell pellets were taken up in 100 µL 1x sample buffer (50 mM Hepes pH 8.0, 1% (wt/v) SDS, 1% (v/v) NP-40, 10 mM TCEP, 40 mM chloroacetamide) and samples were heated at 90 °C for 5 min prior to sonication with a Bioruptor UCD-300 (Diagenode) for ten cycles of 1 min pulse and 30 s pause at high power. The samples were then supplemented with Benzonase (20 U/sample) and sonified for 5 min in a water bath (Bandelin) followed by 30 min incubation at […].
The protein extracts were then centrifuged (20000 ×g, RT, 40 min) and the protein concentration of the cleared lysates was determined using the Pierce 660 nm Protein Assay Reagent (#22660; Thermo Scientific) with the Ionic Detergent Compatibility Reagent (#22663; Thermo Scientific) according to the manufacturers’ instructions. Next, 15 µg of total protein per sample in a volume of 100 µL sample buffer was transferred to a 500 µL 96-well plate and treated with 7 U of benzonase (#71206; Merck Millipore) in dilution buffer (20 mM Hepes pH 8.0, 2 mM MgCl2) at 37 °C for 30 min with agitation at 1500 rpm. After Benzonase treatment samples were heated to 90 °C for 5 min and after cooling down to room temperature, iodoacetamide to a final concentration of 10 mM was added for complete alkylation of cysteines (37 °C, 15 min, 1000 rpm, in the dark).
Then, 3 µL of a 50 µg/µL 1:1 mixture of hydrophilic (#45152105050250) and hydrophobic (#65152105050250) carboxylate modified Sera-Mag SpeedBeads (Cytiva), that were washed twice with MS-grade water, were added to the samples. The next steps were carried out at room temperature unless noted otherwise. Afterwards, the samples were mixed shortly (1 min, 1000 rpm) and collected by short centrifugation (10 s, 200 ×g). […]

USP7 = biological target: T1, USP7 (Homo sapiens, UniProt Q93009); test: USP7 degradation, Western blot densitometry, Ma-Mel-47 cells; format: cell-based; conditions: for USP7 levels in time course (in words): over 24 h; for USP7 degradation (in words): 24 h; for DC50: read-out: DC50 (half-maximal degradation concentration)
T1 construct: allowed the analysis of endogenous USP7 degradation in both cell lines; endogenous in cells; host or cells: Panc89 (PDAC) and Ma-Mel-47 (melanoma) cells
Description: The melanoma cell line Ma-Mel-47 (established previously[57] from metastatic lesions from patient tumor tissues after written informed consent) and the PDAC cell line Panc89 (RRID: CVCL_4056, also referenced as T3M-4[58]) were cultured in a humidified incubator with 5% CO2 at 37 °C in RPMI1640 (Ma-Mel-47) / DMEM (Panc89) medium containing 10% (v/v) fetal calf serum (FCS) and penicillin/streptomycin (all Gibco, Thermo Fisher Scientific). Studies on human material were approved by the institutional review board. […] Testing for mycoplasma was performed by PCR monthly. To confirm cell identity, STR analysis was performed by the Microsynth Seqlab GmbH.
To prepare samples for Western blot analysis, cells were seeded in 6-well dishes the day before treatment to adhere at 70–80% confluency.
Cell pellets of all PDAC samples were lysed via adding a buffer containing 150 mM NaCl, 50 mM Tris/HCl (pH 7.4), 1% Triton X-100, 10 mM EDTA, 1 mM PMSF, 10 mM orthovanadate, and 1% aprotinin, incubating on ice for 1 h with vortexing every 15 minutes. Lysates were cleared of cell debris by centrifugation at 10,000 ×g at 4 °C for 10 min. […] Lysates were then clarified of cell debris by centrifugation at 13,000 ×g at 4 °C for 15 min. Thereafter, the total protein concentrations were either determined immediately or the protein extracts were stored at −20 or −80 °C. Pellets for samples shown in Fig. 6 and Supplementary Fig. 6 were lysed in 120 µL lysis buffer (50 mM Tris pH 8.0, 150 mM NaCl, 1% (v/v) IGEPAL, 0.5% (w/v) Na-deoxycholate, 0.1% (w/v) SDS) supplemented with 1x EDTA-free inhibitor protease cocktail (cOmplete, Roche) for 15 min at 4 °C. 0.2 µL Turbonuclease (Sigma Aldrich) and 5 mM MgCl2 were then added and lysates were incubated for 15 min at 4 °C. Cell debris was separated by centrifugation at 20,817 ×g for 15 min at 4 °C.
Protein concentrations of cell lysates were measured using the Pierce BCA Protein Assay (Thermo Fisher Scientific) or the Quick Start Bradford Protein Assay (Bio-Rad), following the manufacturers’ protocols. Measurements were recorded on Tecan Spark or Tecan Infinite M200 plate readers. Lysates were kept on ice throughout the entire process.
To separate proteins via SDS-PAGE, 10-20 µg of protein in lysis buffer was diluted with SDS-PAGE loading buffer (for most blots containing DTT or 2-mercaptoethanol) and denatured at 95 °C for 5 min. Protein separation was conducted at 95–110 V using the Mini-PROTEAN electrophoresis system (Bio-Rad). Proteins were then transferred to PVDF or nitrocellulose membranes using the Trans-Blot Turbo system (Bio-Rad) with the Trans-Blot Turbo RTA Kit for PVDF membranes. Prior to transfer, membranes were activated by soaking in 100% ethanol (for PVDF) or distilled water (for nitrocellulose) and proteins were transferred using the Mixed MW or the standard (1.0 A, 25 V, 30 min) protocol.
After transfer, membranes were blocked in 5% (w/v) milk/TBS-T for 1 h and then washed three times for 10 min with TBS-T. They were incubated overnight at 4 °C with the primary antibody in 5% (w/v) milk/TBS-T or 1% (w/v) BSA/TBS-T. Membranes were then washed three times for 10 min with TBS-T and incubated with horseradish peroxidase (HRP)-conjugated secondary antibodies in a solution of 5% (w/v) BSA/TBS-T or 1% (w/v) milk/TBS-T for 1 h at room temperature. PBS-T was used for blots shown in Fig. 6 and Supplementary Fig. 6.
Membranes were incubated with Clarity Western ECL substrate (Bio-Rad) for PDAC samples or Pierce ECL Western Blotting-Substrate (Thermo Fisher Scientific) for melanoma. Chemiluminescent signals were detected with a ChemiDoc Imaging System (Bio-Rad) for PDAC samples or with a ECL Chemostar Imager (Intas Science Imaging) for melanoma samples.
Densitometric quantification of band intensities for Fig. 2c, d was performed using the ImageJ software.

[1] = Ma-Mel-47, 24 h, Western blot densitometry

T1 sequence (Q93009 whole entry): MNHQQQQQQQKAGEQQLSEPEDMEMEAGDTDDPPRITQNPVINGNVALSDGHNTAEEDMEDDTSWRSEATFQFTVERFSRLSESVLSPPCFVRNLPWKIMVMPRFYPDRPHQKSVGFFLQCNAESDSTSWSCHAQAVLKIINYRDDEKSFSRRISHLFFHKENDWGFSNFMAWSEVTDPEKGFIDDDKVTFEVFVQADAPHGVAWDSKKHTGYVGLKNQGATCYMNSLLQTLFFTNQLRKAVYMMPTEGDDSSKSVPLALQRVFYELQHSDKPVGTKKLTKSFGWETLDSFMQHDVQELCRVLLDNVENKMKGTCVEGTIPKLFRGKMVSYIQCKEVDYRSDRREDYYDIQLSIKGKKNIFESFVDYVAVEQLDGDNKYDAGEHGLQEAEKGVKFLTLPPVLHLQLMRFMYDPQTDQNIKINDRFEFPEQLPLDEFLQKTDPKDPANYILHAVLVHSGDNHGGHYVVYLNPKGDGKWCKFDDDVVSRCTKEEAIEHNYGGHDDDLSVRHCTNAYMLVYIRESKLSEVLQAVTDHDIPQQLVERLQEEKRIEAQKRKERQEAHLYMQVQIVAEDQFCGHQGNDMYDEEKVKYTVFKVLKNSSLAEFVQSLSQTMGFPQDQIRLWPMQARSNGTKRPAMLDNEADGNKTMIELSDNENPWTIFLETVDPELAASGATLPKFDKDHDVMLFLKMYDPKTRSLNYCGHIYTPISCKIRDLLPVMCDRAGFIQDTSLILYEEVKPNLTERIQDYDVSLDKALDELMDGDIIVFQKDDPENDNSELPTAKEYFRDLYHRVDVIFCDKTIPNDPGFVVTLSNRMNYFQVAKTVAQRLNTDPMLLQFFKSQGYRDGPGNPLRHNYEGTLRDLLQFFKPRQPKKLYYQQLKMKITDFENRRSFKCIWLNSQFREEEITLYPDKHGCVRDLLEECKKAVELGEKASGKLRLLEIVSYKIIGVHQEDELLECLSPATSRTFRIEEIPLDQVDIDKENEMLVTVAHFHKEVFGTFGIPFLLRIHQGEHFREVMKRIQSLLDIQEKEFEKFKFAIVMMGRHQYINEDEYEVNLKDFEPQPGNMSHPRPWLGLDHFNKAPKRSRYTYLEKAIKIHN

Structure (SMILES) | Changes to the proteome (in words) (Ma-Mel-47 cells; 72 h) | USP7 levels in time course (in words) (USP7; Ma-Mel-47, 1 µM) | USP7 protein level change (in words) (Ma-Mel-47 cells; 6 h) | USP7 protein level change (in words) (Ma-Mel-47 cells; 24 h) | Time after which USP7 degradation was observed (USP7; Ma-Mel-47, 1 µM) | USP7 degradation (in words) (USP7; Ma-Mel-47, 5 µM, Western blot) | Dmax (USP7; [1]) | DC50 (USP7; [1]) | USP7 degradation (in words) (USP7; Ma-Mel-47, 1 µM)
Cc1ncsc1-c1ccc(CNC(=O)[C@@H]2C[C@H](O)CN2C(=O)[C@@H](NC(=O)[C@H]2CC[C@H](C(=O)N3CCN(c4ccc(-n5ncc6c(=O)n(CC7(O)CCN(C(=O)C[C@@H](C)c8ccccc8)CC7)cnc65)cc4)CC3)CC2)C(C)(C)C)cc1 [NK245] | only showed minimal changes to the proteome | did not reduce protein levels |  |  |  |  |  |  | 
Cc1ncsc1-c1ccc([C@H](C)NC(=O)[C@@H]2C[C@@H](O)CN2C(=O)[C@@H](NC(=O)C23C4C5C2C2C3C4C52C(=O)N2CCC(C3CCN(c4ccc(-n5ncc6c(=O)n(CC7(O)CCN(C(=O)C[C@@H](C)c8ccccc8)CC7)cnc65)cc4)CC3)CC2)C(C)(C)C)cc1 (some centres unmarked) [NK266] |  |  | only minimal reduction | the most decreased protein | 16 h | higher potency | 94% | 29 nM | 
Cc1ncsc1-c1ccc([C@H](C)NC(=O)[C@@H]2C[C@@H](O)CN2C(=O)[C@@H](NC(=O)[C@H]2CC[C@H](C(=O)N3CCN(c4ccc(-n5ncc6c(=O)n(CC7(O)CCN(C(=O)C[C@@H](C)c8ccccc8)CC7)cnc65)cc4)CC3)CC2)C(C)(C)C)cc1 [NK250] |  | weak effects |  |  |  |  |  | 154 ± 38 nM | not able to fully degrade USP7
